Values joined by “and” are separate entries in the source; they are usually repeats but may differ in a detail not shown here. Equal values may be shown once. “Also recorded” adds a separate entry of the source. Read-outs that look alike come from different tables or passages of the source.

Data set [1] relates to core 2 GlcNAc-T.
In data set [2] the test system is CHO cells. Briefly: Proliferation (doubling time) of CHO cells in the presence of differentiation agents. It counts as cell-based, Chinese hamster.
Data set [3] deals with CHO cells. Briefly: Cell morphology of CHO cells. The class given is cell-based, Chinese hamster.
The subject of data set [4] is β1-3Gal-T.
In data set [5] the target is T1, core 2 GlcNAc-T (Cricetulus griseus, UniProt A0A9J7GWB2).
T1 construct: The lysates were adjusted to 8-12 μg/μl protein with lysis solution and used as the source of transferases; endogenous in cells; host or cells: CHO cells (untreated or treated with differentiating agents), detergent lysate; in A6 freeze-thawed cells, pelleted membranes
T1 sequence (A0A9J7GWB2 1-428): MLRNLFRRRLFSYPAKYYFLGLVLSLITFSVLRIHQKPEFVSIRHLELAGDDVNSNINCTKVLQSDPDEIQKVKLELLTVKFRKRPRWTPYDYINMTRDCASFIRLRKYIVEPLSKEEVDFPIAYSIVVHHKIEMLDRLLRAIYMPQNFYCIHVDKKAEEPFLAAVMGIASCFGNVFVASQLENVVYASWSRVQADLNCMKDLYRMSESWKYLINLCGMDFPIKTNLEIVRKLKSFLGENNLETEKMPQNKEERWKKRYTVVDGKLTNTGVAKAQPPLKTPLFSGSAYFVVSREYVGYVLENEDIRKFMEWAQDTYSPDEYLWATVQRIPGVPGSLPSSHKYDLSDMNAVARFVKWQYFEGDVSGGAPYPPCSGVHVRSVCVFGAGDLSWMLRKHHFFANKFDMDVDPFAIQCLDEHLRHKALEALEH
Description: Kinetic analysis of core 2 GlcNAc-T activity in CHO cell lysates. It counts as biochemical, Chinese hamster. The following applies: butyrate+cholera toxin-treated versus untreated CHO cells.

In data set [6] the test system is core 2 GlcNAc-T. Briefly: Substrate Km for core 2 GlcNAc-T found in CHO and MDAY-D2 cell lysates. It counts as biochemical, Chinese hamster; murine.
Data set [7] has as its system core 2 GlcNAc-T. The following applies: CHO and MDAY-D2 cell lysates; Yousefi et al (1991); cited from earlier work.
In data set [8] the test system is bovine β1-4Gal-T. Description: Kinetics of the β1-4Gal-T reaction. Particulars: 1 mU Gal-T, 5 min at 30° C. The class given is biochemical.
Data set [9] concerns Ca^++ -dependent protein kinases. Particulars: cell-free assays; Hidaka et al, 1984; cited from earlier work.
Data set [10] concerns cAMP-dependent protein kinases. Particulars: cell-free assays; Hidaka et al, 1984; cited from earlier work.
For data set [11] the following is noted: 2 hour incubation, lysates from control or butyrate+cholera toxin-treated cells.
The test system of data set [12] is cAMP. The class given is cell-based, Chinese hamster.
Data set [13] has as its system core 2 GlcNAc-T. It counts as biochemical, Chinese hamster.
The nature of data set [14]: in vitro. The following applies: hamster, cho cells.
Where [15] appears, read: 1 μM actinomycin D, 5 μg/ml cycloheximide, 50 μM kinase inhibitors.

For `Nc1ncnc2c1nc(Br)n2[C@@H]1O[C@@H]2COP(=O)(O)O[C@H]2[C@H]1O` [8-bromo-cAMP], the “effect on core 2 GlcNAc-T activity in CHO cells (in words)” value (“effect … in CHO cells (in words)” below) in data set [1] is recorded as “failed to induce enzyme activity”.

`C[S+](C)[O-]` [DMSO, dimethylsulfoxide]: the “Doubling Time” value was 25 to 27 h in [2] and 25 h in data set [2] (average slopes of growth curves over 72 hours). Moreover, the entries for the “effect on cell proliferation (in words)” value in data set [2] and in data set [2] (listed as dimethylsulfoxide) were “reductions in cell growth rates” and “slowed cell proliferation”, respectively. The “changes in cell morphology (in words)” value in data set [3] was “changes in cell morphology”; in [3] (listed as dimethylsulfoxide), “induced changes in cell morphology”. For the same molecule, the “Core 2 GlcNAc-T activity” value turned out to be 9.6 pmol/mg/h in [1] (24 h treatment), 11.2 pmol/mg/h in [1] (48 h treatment) and 9.5 pmol/mg/h in data set [1] (72 h treatment). The “B-1 Gal-T activity” value in data set [4] (24 h treatment) turned out to be 9.1 nmoles/m/h; in [4] (48 h treatment), 8.1 nmoles/m/h; in data set [4] (72 h treatment), 5.6 nmoles/m/h.

Turning to `CC(=O)N[C@H]1[C@@H](Oc2ccc([N+](=O)[O-])cc2)O[C@H](CO)[C@H](O)[C@@H]1O[C@@H]1O[C@H](CO)[C@H](O)[C@H](O)[C@H]1O` [Galβ1-3GalNAcα-pNp], the “change in Km for the synthetic acceptor (in words)” value in [5] is on record as “no changes in Km”. In data set [6], the “fold by which substrate Km for β1-4Gal-T is lower than for core 2 GlcNAc-T” value is given as 5 fold. Further, the Km in data set [7] is 300 µM.

As to `COC(=O)CCCCCCCCO[C@@H]1O[C@H](CO[C@H]2O[C@H](CO)[C@@H](O)[C@H](O)[C@@H]2O[C@@H]2O[C@H](CO)[C@@H](O)[C@H](O)[C@H]2NC(C)=O)[C@@H](O)[C@H](O)[C@@H]1O` [GlcNAcβ1-2Manα1-6Manβ--O--(CH2)8 --COOCH3], the Michaelis-Menten constant (Km) in data set [8] is 45 µM.

As for `CC1CNCCN1S(=O)(=O)c1cccc2cnccc12` (centres unmarked) [H-7], the “effect on induction of core 2 GlcNAc-T activity by butyrate (in words)” value (from here on “effect on induction”) in data set [1] (setting [15]) is “blocked induction of core 2 GlcNAc-T activity”. For the same molecule, the IC50 in data set [9] was 1 to 10 µM.

Regarding `CNCCNS(=O)(=O)c1cccc2cnccc12` [H-8], the “effect on induction” value in data set [1] (setting [15]) is listed as “blocked induction of core 2 GlcNAc-T activity”. The concentration for half-maximal inhibition (IC50) in data set [10] was 1 to 10 µM.

`NC(N)=NCCNS(=O)(=O)c1cccc2cnccc12` [H-1004]: the “effect on induction” value in data set [1] was “had no effect”.

In the case of `CC1=C(/C=C/C(C)=C/C=C/C(C)=C/C(=O)O)C(C)(C)CCC1` [RA, all-trans-retinoic acid], in data set [2], the “Doubling Time” value was 13 h. In addition, the “effect … in CHO cells (in words)” value in data set [1] is “had no effect on activity”; in data set [1] (listed as retinoic acid), “Neither cholera toxin alone, retinoic acid, DMSO nor PMA had any effect on core 2 GlcNAc-T activity”.

Turning to `CCCCCCCCCCCCCC(=O)O[C@@H]1[C@@H](C)[C@@]2(O)[C@@H](C=C(CO)C[C@]3(O)C(=O)C(C)=C[C@@H]23)[C@@H]2C(C)(C)[C@]12OC(C)=O` [TPA, phorbol 12-myristate 13-acetate], the “Doubling Time” value in data set [2] worked out at 13 h. In addition, the “effect … in CHO cells (in words)” value in [1] (listed as PMA) was “Neither cholera toxin alone, retinoic acid, DMSO nor PMA had any effect on core 2 GlcNAc-T activity”.

Consider `CC(=O)N[C@H]1[C@@H](OP(=O)(O)OP(=O)(O)OC[C@H]2O[C@@H](n3ccc(=O)[nH]c3=O)[C@H](O)[C@@H]2O)O[C@H](CO)[C@@H](O)[C@@H]1O` [UDP-GlcNAc], for which the “fold by which substrate Km for β1-4Gal-T is lower than for core 2 GlcNAc-T” value in [6] is recorded as 7 fold. The UDP-GlcNAc remaining intact in data set [11] was 93-95%. Further, the Km in [7] was 500 µM.

For `CCCC(=O)[O-].[Na+]` [butyrate, sodium butyrate], in [2], the “Doubling Time” value was 25 to 27 h and 24 h; the “effect on cell proliferation (in words)” value is on record as “reductions in cell growth rates; also recorded: slowed cell proliferation”. The “changes in cell morphology (in words)” value in data set [3] was “induced changes in cell morphology”. In data set [12], the “delay of core 2 GlcNAc-T peaks after peaks in cytosolic cAMP” value lay in the range of 8 to 12 h, the “effect on intracellular/cytosolic cAMP levels (in words)” value is “butyrate treatment increases intracellular cAMP levels; also recorded: elevated cytosolic cAMP levels”, the “time by which cAMP elevation preceded induction of core 2 GlcNAc-T activity” value is recorded as “approximately 8 h” and the “time of first peak of cAMP” value amounted to 12 h. The “time of second peak of cAMP” value in [12] turned out to be 72 h. Also, in [13], the “core 2 GlcNAc-T activity, kinase +” value is reported as 264.9 and the “core 2 GlcNAc-T activity, kinase -” value amounted to 267.4. Also, in data set [1], the “effect … in CHO cells (in words)” value is reported as “only butyrate induced core 2 GlcNAc-T activity”; the “second peak of core 2 GlcNAc-T activity, higher than the 24 hours peak” value is given as “approximately 45%”; the “time of first peak (maximum) of core 2 GlcNAc-T activity” value amounted to 24 h; the “time of second peak of core 2 GlcNAc-T activity” value was 84 h. For the same molecule, the “core 2 GlcNAc-T activity greater than controls” value in [1] (cho cells, 2000 µM) is recorded as 10-20 times. Besides, the “fold increase in core 2 GlcNAc-T activity” value in data set [1] (cho cells, 24 h) amounted to 16 fold. In addition, in data set [4] (cho cells, 24 h, 2000 µM), the “increase in β1-3 Gal-T activity” value is “approximately 2 fold” and the “increase in β1-3Gal-T activity” value is 2-3 times. Moreover, in data set [14], the viability at 2000 µM was in the range of 90 to 95%.

In the case of `CCCC(=O)Nc1ncnc2c1ncn2[C@@H]1O[C@@H]2COP(=O)(O)O[C@H]2[C@H]1OC(=O)CCC` [dibutyryl cAMP], in data set [1], the “effect … in CHO cells (in words)” value is recorded as “failed to induce enzyme activity”.

In the case of cholera toxin, the “effect on cell proliferation (in words)” value in data set [2] is listed as “reductions in cell growth rates; also recorded: slowed cell proliferation”. For the same molecule, the “changes in cell morphology (in words)” value in data set [3] is on record as “induced changes in cell morphology”. In data set [12], the “effect on intracellular/cytosolic cAMP levels (in words)” value is “enhanced both cytosolic cAMP concentrations and core 2 GlcNAc-T activity compared to butyrate-treatment alone”. Further, in [1], the “additional increase in core 2 GlcNAc-T activity in butyrate-treated cells” value worked out at 2 fold; the “effect on core 2 GlcNAc-T activity of butyrate-treated cells (in words)” value was “enhanced both cytosolic cAMP concentrations and core 2 GlcNAc-T activity compared to butyrate-treatment alone”; the “enhancement of core 2 GlcNAc-T activity in butyrate-treated cells” value worked out at 80%.

The values above are taken from patent US5501957A, “Method for measuring glycosyltransferase activity” (priority 1994, dated 1996).
